Consider one compound from US10399971B2, “Compound for treating or preventing hyperuricemia or gout” (JIANGSU ATOM BIOSCIENCE AND PHARMACEUTICAL CO., LTD., priority 2015, dated 2019).

Each structure is given as a SMILES string.

One series addresses T1, hURAT1 (Homo sapiens, UniProt Q96S37).
T1 sequence (Q96S37 1-553): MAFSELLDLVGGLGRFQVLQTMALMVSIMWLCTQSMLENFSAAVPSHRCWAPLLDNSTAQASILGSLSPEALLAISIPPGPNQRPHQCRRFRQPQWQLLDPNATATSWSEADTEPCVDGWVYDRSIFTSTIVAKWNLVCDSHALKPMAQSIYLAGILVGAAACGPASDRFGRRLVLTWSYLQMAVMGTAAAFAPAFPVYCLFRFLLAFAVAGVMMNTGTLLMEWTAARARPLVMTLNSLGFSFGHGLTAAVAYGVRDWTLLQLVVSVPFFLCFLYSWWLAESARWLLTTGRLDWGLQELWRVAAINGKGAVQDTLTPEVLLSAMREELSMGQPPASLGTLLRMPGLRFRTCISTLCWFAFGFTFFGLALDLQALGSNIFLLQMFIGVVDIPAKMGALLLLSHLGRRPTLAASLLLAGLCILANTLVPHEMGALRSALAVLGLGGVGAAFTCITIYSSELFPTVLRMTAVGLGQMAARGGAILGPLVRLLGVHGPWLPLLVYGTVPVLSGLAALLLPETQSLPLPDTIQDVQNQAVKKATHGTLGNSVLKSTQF
The experiment in a line: Inhibition assay of uric acid transport in HEK293-hURAT1 transfection cell line. Type of series: cell-based. As to conditions: 500 nM; HEK293-hURAT1 transfection cell line; 14C-uric acid; average of three tests; 0.5 µM. The procedure: 2.1 Construction of a HEK293 stable cell line with high expression of hURAT1: The plasmid pCMV6-hURAT1 was transfected into HEK293 cells, then the stable strain was obtained by the G418 (final concentration 500 μg/mL) resistance screening, which is the high expression of hURAT1 transporter membrane protein.
2.2 To a coated 24-well plate was added 200 μL of 0.1 mg/mL poly-lysine per well and the plate was left overnight. Poly-lysine was removed from wells. The wells were cleaned thoroughly with aseptic water and dried for use.
2.3 To the above coated 24 well plate was added HEK293-hURAT1 stable cells (2×10^5 cells per well). The cells was cultured at 37° C. under 5% CO2 for 3 days.
The solution was fully mixed to give HBSS buffer (pH value: 7.4). The buffer was stored at −20° C.
2.5 The HBSS buffer was warmed to 37° C. in a water bath. Washed cells with HBSS twice, added 160 μL of HBSS and 20 μL test compound per well. The final concentration of tested compound per well is 500 nM. The blank control well contains only 180 μL of HBSS without tested compound. The plate was placed at room temperature for 30 min.
2.6 To each well was added 20 μL of 50 μM ^14C-Uric acid. The plate was placed at room temperature for 20 min.
2.7 The solution in each well was removed and the cells in each well were washed with pre-cooled HBSS buffer. To each well was added 0.2 M NaOH to dissolve the cells. The solution containing cell fragments was collected and the right amount of scintillation liquid was added.
The formula for calculating the inhibitory rate of uric acid transport for compounds was shown as below: […]

The test system of a further series is hyperuricemia mice. Description: Uric acid excretion test in hyperuricemia mice. Type of series: in vivo, Kunming mice. The conditions noted are these: 15 mg/kg oral. The procedure: Species: Kingming mice (Clean Level); body weights: 25 to 30 g; ages: 4 to 5 weeks; sex: male. These mice were purchased from Shanghai SLAC Laboratory Animal Co., Ltd. Certificate No.: SCXK (HU) 2012-2002. Animal quality certificate number: 2015000522173.
A certain amount of adenine and yeast extract powder was weighted and a certain amount of double distilled water was added. The mixture was stirred at about 60° C. for 40 min to give a suspension, which the concentration of yeast extract is 0.6 g/mL and the concentration of adenine is 12 mg/mL.
A suspension of 20 mg/mL potassium oxonate was prepared by mixing a certain amount of potassium oxonate with 0.5% CMC-Na solution before use.
Male Kunming mice were randomly divided into four groups: blank control group, model group, compound 74 group, and benzbromarone group. Each group has six mice. All mice fasted 2 to 3 h before use. The model group, benzbromarone group, and compound 74 group were orally given a suspension of yeast extract and adenine prepared above to reach the final dosage of 10 g/kg (body weight) of yeast extract and 200 mg/kg (body weight) of adenine, respectively. The blank control group was only given same volume of normal saline orally. After 2.5 h, all mice in compound 74 group and benzbromarone group were given 10 mL/kg of suspension of compound 74 (1.5 mg/mL) and 10 mL/kg of suspension of benzbromarone (1.5 mg/mL), respectively. The blank control group and model group were orally given same volume of 0.5% CMC-Na solution. All animals were treated in the same way for seven days by using administration methods described above. On the last day, after administration of a suspension of yeast extract and adenine for the model group, compound 74 group, and benzbromarone group, all mice in these three groups were given 12.5 mL/kg of potassium oxonate (20 mg/mL) by i.p. The blank control was only given same volume of 0.5% CMC-Na solution by i.p. After 30 min, compound 74 and benzbromarone were administrated orally to the mice at same dosages as above in compound 74 group and benzbromarone group, respectively. The blank control group and model group were orally given same volume of 0.5% CMC-Na solution.
Collection of urine samples: All mice were placed in metabolic cages with normal diet individually after giving test compounds on the last day. 24 h urine was collected and the urine volume was measured. The urine was centrifugated at 3000 rpm for 20 min and the supernatant was collected.
Detection of the concentration of uric acid of mice urine samples: uric acid concentration in samples was detected by using uric acid assay kit (phosphotungstic acid method) followed the procedures described in the instruction.

The nature of the next series: in vivo. As to conditions: both, SD, rat, po.
A short description of series [1]: Acute toxicity of single oral dose in SD rats. As to conditions: for Weight gain rate (%): 14 day compared with 0 day.
Excerpt: (§1) Rats were randomly divided into group A1, group B1 and blank control group. Each group has 10 of rats with half male and half female.
[2] abbreviates: female SD rats (n=5), 74 at 5.0 g/kg, BBR at 0.14 g/kg.
The mark [3] stands for this setting: male SD rats (n=5), 74 at 5.0 g/kg, BBR at 0.14 g/kg.

Excerpt for in vivo: as §1

Take `CCc1nc2ccccn2c1C(=O)c1cc(Br)c(O)c(C#N)c1` [Compound 74, 3-bromo-5-(2-ethylimidazo[1,2-a]pyridine-3-carbonyl)-2-hydroxybenzonitrile hydrogen chloride]: the “Inhibitory rates of uric acid transport, ±SD (%)” value on hURAT1 was 62.75 ± 5.73%. Besides, the “uric acid excretion increased compared with the model group” value in the series on hyperuricemia mice (increase over model group) was “about 46.77%”. Further, the “Changes of uric acid excretion (compared with model group, %)” value in the series on hyperuricemia mice (model group set to 100%) is 146.77%. Moreover, the “Uric acid in urine for 24 h, ±SD” value in the series with hyperuricemia mice (seven days, 6 mice) stood at 15.69 ± 1.53 mmol. For the same compound, the MTD at 14 days in the series “in vivo” worked out at 5000 mg/kg. For the same compound, the Death rate in series [1] (SD rats, single oral dose, 74 at 5.0 g/kg, BBR at 0.14 g/kg, 10 rats per group, 14 days observation) is listed as 0/10. In series [1] (setting [2]), the “Weight 0 day (X ± SD)” value was found to be 135.94 ± 5.62 g, the “Weight 7 day (X ± SD)” value was 183.02 ± 11.10 g and the “Weight 14 day (X ± SD)” value turned out to be 208.04 ± 11.90 g. Also, the “Weight gain rate (%)” value in series [1] (female SD rats (n=5)) was “+53.0%”. In addition, in series [1] (setting [3]), the “Weight 0 day (X ± SD)” value is recorded as 149.06 ± 5.95 g, the “Weight 7 day (X ± SD)” value turned out to be 204.04 ± 21.69 g and the “Weight 14 day (X ± SD)” value is 258.12 ± 17.65 g. Further, the “Weight gain rate (%)” value in series [1] (male SD rats (n=5)) was “+73.2%”. The “death of rats in pre-experiment of acute toxicity” value in series [1] (pre-experiment, compound 74 at 5 g/kg (highest dose), benzbromarone at 0.14 g/kg) is “did not cause death”.
